Laboratory results reported in paper PMC4920673, “Nitroimidazole carboxamides as antiparasitic agents targeting Giardia lamblia, Entamoeba histolytica and Trichomonas vaginalis” (European Journal of Medicinal Chemistry, 2016).
Converted amounts (≈) assume the structure as drawn. Where two headings read alike, the source gives them in different places.

How the values were obtained:
T. vaginalis F1623 = experiment: ATP-bioluminescence growth/survival EC50 assay, T. vaginalis; assay type: cell-based, Trichomonas vaginalis
Description: (§1) Compounds were screened for antiparasitic activity using an ATP-bioluminescence based assay for cell growth and survival, [24]. […] Viable cell numbers were determined in triplicate using the CellTiter-Glo Luminescent Cell Viability Assay.

G. lamblia 713M3 (MtzR) = experiment: ATP-bioluminescence growth/survival EC50 assay, G. lamblia 713M3; assay type: cell-based, Giardia lamblia
Description: as §1

[1] = tested on: C. difficile 630 (ATCC BAA-1382); experiment: Broth microdilution MIC assay, C. difficile 630; assay type: cell-based, Clostridium difficile; details: for MIC: Clostridioides difficile, ATCCBAA1382
Description: Clostridium difficile strains (630, ATCC BAA-1382 and NAP1/027, ATCC BAA-1803) were maintained as previously described. The minimum inhibition concentration (MIC) was determined according to the CLSI Methods with modifications in broth and inoculum for C. difficile, [25], [26]. Briefly, compounds and control antibiotics were serially diluted two-fold in 96-well plates (Non-binding surface, Corning). […] C. difficile bacteria from BHIS(TA) agar plates were cultured anaerobically in BHIS at 37 °C overnight. […] An antibiotic standard, a positive growth control (no compound) and a sterility control (no bacteria) were included on each 96 well plate. Plates were covered and incubated at 37 °C for 24 h. MICs for each strain were determined as the lowest concentration without visible growth. […] Median MICs are reported with a range given when the median MIC was between two tested concentrations.

HepG2 cells = experiment: Resazurin cytotoxicity assay, HepG2; assay type: cell-based, Human
Description: (§2) Human HEK293 and HepG2 cells were seeded at 3000 and 5000 cells per well in 384-well plates, respectively. Cells were cultured in Dulbecco's modified Eagle's medium with 10% FBS for 24 h at 37 °C, 5% CO2. A dilution series of compounds was added, with the highest concentration of 100 μM. […] After 24 h incubation with the compounds, 5 μM resazurin was added into each well and incubated at 37 °C for 2 h. As a negative control, 1% Triton X-100 was added into the culture media to lyse all of the cells. The fluorescence intensity was read using Polarstar Omega with excitation/emission 560/590 nm. Data were analysed with GraphPad Prism 6 software (La Jolla, California USA) to calculate CC50 values.

HEK293 cells = experiment: Resazurin cytotoxicity assay, HEK293; assay type: cell-based, Human
Description: as §2

E. histolytica HM1:IMSS = experiment: ATP-bioluminescence growth/survival EC50 assay, E. histolytica; assay type: cell-based, Entamoeba histolytica
Description: as §1

G. lamblia WB (MtzS) = experiment: ATP-bioluminescence growth/survival EC50 assay, G. lamblia WB; details: for S.I (CC50/EC50): average cytotoxicity against HEK293 and HepG2 / G. lamblia WB activity
Description: as §1

[2] = Plasma protein binding by ultrafiltration; assay type: in vitro ADME; details: human, pooled human plasma (100%), 5 μM, 100% human plasma, 37 °C, 30 min, ultrafiltration; for fraction unbound at 30 min, 5 μM: read-out: Plasma protein binding (% bound); for fraction unbound at 0.5 h, 5 µM: read-out: Plasma protein binding (% bound) (converted)
Description: Plasma Protein Binding (PPB) was performed using an Ultrafiltration method, [28]. […] Samples were incubated at […] for 30 min, then centrifuged at 14,000 × g for 8 min, with the clear supernatant transferred to a vial for LC/MS/MS analysis. […] The fraction of unbound compound was calculated by determining the concentration of the filtered sample and the concentration of unfiltered sample. […] LC/MS/MS parameters are detailed in the supplementary information (Supplementary Table 1).

[3] = tested on: C. difficile NAP1/027 (ATCC BAA-1803); experiment: Broth microdilution MIC assay, C. difficile NAP1/027; assay type: cell-based, Clostridium difficile; details: Clostridioides difficile, ATCCBAA1803; strain NAP1/027
Description: Clostridium difficile strains (630, ATCC BAA-1382 and NAP1/027, ATCC BAA-1803) were maintained as previously described. The minimum inhibition concentration (MIC) was determined according to the CLSI Methods with modifications in broth and inoculum for C. difficile, [25], [26]. Briefly, compounds and control antibiotics were serially diluted two-fold in 96-well plates (Non-binding surface, Corning). The plates were placed in a Coy anaerobic chamber (5% H2, 10% CO2, 85% N2) overnight to reduce the medium. C. difficile bacteria from BHIS(TA) agar plates were cultured anaerobically in BHIS at 37 °C overnight. […]. Compound concentration ranged from 64 to 0.03 μg/mL. An antibiotic standard, a positive growth control (no compound) and a sterility control (no bacteria) were included on each 96 well plate. Plates were covered and incubated at 37 °C for 24 h. MICs for each strain were determined as the lowest concentration without visible growth. Variance between replicates was typically within one 2-fold dilution. Median MICs are reported with a range given when the median MIC was between two tested concentrations.

[4] = Resazurin cytotoxicity assay, HepG2; assay type: cell-based, Human; details: human, 24 h, highest concentration 100 μM, n = 3, read-out: CC50 Hep G2
Description: as §2

[5] = Resazurin cytotoxicity assay, HEK293; assay type: cell-based, Human; details: human, 24 h, highest concentration 100 μM, n = 3, read-out: CC50 HEK 293
Description: as §2

[6] = Trichomonas vaginalis, read-out: EC50 T. vaginalis F1623, MtzS, minimum n = 3
[7] = Trichomonas vaginalis, read-out: pEC50 ± SE T. vaginalis F1623, MtzS (converted)
[8] = Giardia duodenalis, read-out: EC50 G. lamblia 713M3, MtzR strain 713M3, minimum n = 3
[9] = Giardia duodenalis, read-out: pEC50 ± SE G. lamblia 713M3, MtzR strain 713M3 (converted)
[10] = strain 630, MtzS, median of n = 4, read-out: MIC C. difficile 630
[11] = Entamoeba histolytica, read-out: EC50 E. histolytica HM1:IMSS
[12] = Entamoeba histolytica, read-out: pEC50 ± SE E. histolytica HM1:IMSS (converted)
[13] = Giardia duodenalis, read-out: EC50 G. lamblia WB, MtzS strain WB, minimum n = 3
[14] = Giardia duodenalis, read-out: pEC50 ± SE G. lamblia WB, MtzS strain WB (converted)
[15] = 630 and NAP1/027 strains together or strain not given, read-out: MIC C. difficile

SMILES	S.I (CC50/EC50) (G. lamblia WB (MtzS))	EC50 (T. vaginalis F1623; [6])	EC50 (T. vaginalis F1623; [7])	MIC [3]	EC50 (G. lamblia 713M3 (MtzR); [8])	EC50 (G. lamblia 713M3 (MtzR); [9])	MIC [1, 10]	CC50 at 24 h ([4]; HepG2 cells)	CC50 at 24 h ([5]; HEK293 cells)	EC50 (E. histolytica HM1:IMSS; [11])	EC50 (E. histolytica HM1:IMSS; [12])	EC50 (G. lamblia WB (MtzS); [13])	EC50 (G. lamblia WB (MtzS); [14])	MIC [1, 15]	further results
Cn1c([N+](=O)[O-])cnc1C(=O)NCc1ccc(OC(F)(F)F)cc1 [Compound 8b, 1-methyl-5-nitro-N-(4-(trifluoromethoxy)benzyl)-1H-imidazole-2-carboxamide]	>33														pEC50 ± SE T. vaginalis F1623 (T. vaginalis F1623; MtzS): 4.88 ± 0.01; EC50 (T. vaginalis F1623; MtzS, minimum n = 3, read-out: EC50 T. vaginalis F1623): 13 µM; pEC50 ± SE G. lamblia 713M3 (G. lamblia 713M3 (MtzR); MtzR strain 713M3): 5.06 ± 0.29; EC50 (G. lamblia 713M3 (MtzR); MtzR strain 713M3, minimum n = 3, read-out: EC50 G. lamblia 713M3): 8.8 µM; MIC C. difficile 630 ([1]; strain 630, MtzS, median of n = 4): 32 µg/mL (≈ 93 µM); CC50 (HepG2 cells): > 100 µM; CC50 (HEK293 cells): > 100 µM; pEC50 ± SE E. histolytica HM1:IMSS (E. histolytica HM1:IMSS; MtzS): 4.85 ± 0.02; EC50 (E. histolytica HM1:IMSS; MtzS, minimum n = 3, read-out: EC50 E. histolytica HM1:IMSS): 14 µM; pEC50 ± SE G. lamblia WB (G. lamblia WB (MtzS); MtzS strain WB): 5.52 ± 0.03; EC50 (G. lamblia WB (MtzS); read-out: EC50 G. lamblia WB, MtzS strain WB, minimum n = 3): 3 µM
Cn1c([N+](=O)[O-])cnc1C(=O)NC1CCCCC1 [Compound 8k, N-cyclohexyl-1-methyl-5-nitro-1H-imidazole-2-carboxamide]	>20	11 µM	10.7 µM	> 64 µg/mL	5.1 µM	5.01 µM	> 64 µg/mL	> 100 µM	> 100 µM	3.7 µM	3.72 µM	4.9 µM	4.9 µM		fraction unbound at 30 min, 5 μM [2]: ≤ 0.06; fraction unbound at 0.5 h, 5 µM [2]: 0.06
O=C(NC1CC1)c1ncc([N+](=O)[O-])[nH]1 [Compound 12j, N-cyclopropyl-5-nitro-1H-imidazole-2-carboxamide]	>20	4.4 µM	4.37 µM	1 µg/mL (≈ 5.1 µM)	> 20 µM	> 20 µM	1 µg/mL (≈ 5.1 µM)	> 100 µM	> 100 µM	5.3 µM	5.25 µM	5 µM	5.01 µM	1 µg/mL (≈ 5.1 µM)	
O=C(NC1CCCCC1)c1ncc([N+](=O)[O-])[nH]1 [Compound 12k, N-cyclohexyl-5-nitro-1H-imidazole-2-carboxamide]	>167	2.4 µM	2.45 µM	8 µg/mL (≈ 33.6 µM)	5.5 µM	5.5 µM	8 µg/mL (≈ 33.6 µM)	> 100 µM	> 100 µM	2.8 µM	2.82 µM		0.603 µM	4 to 16 µg/mL (≈ 16.8 to 67.2 µM)	fraction unbound at 30 min, 5 μM [2]: ≤ 0.06; fraction unbound at 0.5 h, 5 µM [2]: 0.01
NC(=O)c1ncc([N+](=O)[O-])[nH]1 [Compound 12l, 5-nitro-1H-imidazole-2-carboxamide]		> 20 µM	> 20 µM	1 to 2 µg/mL (≈ 6.41 to 12.8 µM)	> 20 µM	> 20 µM	1 µg/mL (≈ 6.41 µM)			13 µM	13.2 µM	> 50 µM	> 50.1 µM		CC50 at 24 h [4]: > 100 µM; CC50 at 24 h [5]: > 100 µM
CNC(=O)c1ncc([N+](=O)[O-])[nH]1 [Compound 12m, N-methyl-5-nitro-1H-imidazole-2-carboxamide]	>10	8.5 µM	8.51 µM	1 µg/mL (≈ 5.88 µM)	> 20 µM	> 20 µM	0.5 to 1 µg/mL (≈ 2.94 to 5.88 µM)	> 100 µM	> 100 µM	6.1 µM	6.17 µM	9.9 µM	10 µM		
O=C(NCCO)c1ncc([N+](=O)[O-])[nH]1 [Compound 12n, N-(2-hydroxyethyl)-5-nitro-1H-imidazole-2-carboxamide]		> 20 µM	> 20 µM	8 to 16 µg/mL (≈ 40 to 79.9 µM)	> 20 µM	> 20 µM	8 µg/mL (≈ 40 µM)	> 100 µM	> 100 µM	> 50 µM	> 50.1 µM	> 50 µM	> 50.1 µM	8 to 16 µg/mL (≈ 40 to 79.9 µM)	
CN(CCO)C(=O)c1ncc([N+](=O)[O-])[nH]1 [Compound 12o, N-(2-hydroxyethyl)-N-methyl-5-nitro-1H-imidazole-2-carboxamide]	>4	> 20 µM	> 20 µM	4 µg/mL (≈ 18.7 µM)	> 20 µM	> 20 µM	2 µg/mL (≈ 9.34 µM)	> 100 µM	> 100 µM	> 50 µM	> 50.1 µM	24 µM	24 µM	0.5 to 2 µg/mL (≈ 2.33 to 9.34 µM)	
